Marks after values point to notes of the source that are not given here.
What was measured:
[1] = tested on: rat caudal artery; experiment: Rat caudal artery ring contractile force (vasoconstrictory activity); set-up: species or system rat (male Wistar)
In short: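 Endothelium-denuded caudal artery rings from male Wistar rats were held at 2 g resting tension in Tyrode solution (37° C, pH 7.35, 95% O2/CO2) and isometric force was recorded. Compounds were tested at 50 μM, with contraction expressed as percent of the 90 mM KCl response.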

[2] = Simulated gastric fluid (SGF) hydrolytic stability assay; assay type: physicochemical; conditions: simulated gastric fluid without pepsin, pH 1.2, 37° C., 1 h, n = 3; for % NRB released, Hydrolytic Stability (simulated gastric fluid): footnote c: compounds not exhibiting vasoconstriction
In short: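 Compounds at 200 μM final (2.5% DMSO) were held 1 h at 37 °C in pepsin-free USP simulated gastric fluid (0.03 M NaCl, pH 1.2 with HCl), n=3. […] was quantified by RP-LCMS.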

[3] = Rat serum assay (release of NRB or NRB analogue); assay type: in vitro ADME; conditions: 80% rat serum, 37° C., 3 h, n = 3
In short: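 Compound (200 μM final) incubated in 80% rat serum diluted with 0.1 M phosphate pH 7.4, 2.5% DMSO, 37 °C for 3 h, n=3, then quenched in ice-cold acetonitrile. NRB or analogue release was quantified by RP-LCMS against external calibration curves, expressed as percent released.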

[4] = Rat liver S9 fraction assay (release of NRB or NRB analogue); assay type: in vitro ADME, rat (male Sprague-Dawley); conditions: 1 mg/mL rat liver S9 fraction, 37° C., 6 h, n = 3
Description: The hydrolytic stability of compounds of the invention was also evaluated in vitro using rat liver S9 fraction (20 mg/mL), pooled from male rat (Sprague-Dawley), obtained from Sigma-Aldrich, diluted to 1 mg/mL with phosphate buffer (0.1 M, pH 7.4) and stored at −78° C. Similar assay conditions to those reported by Li Di and co-workers (Int. J. Pharm. 2005, 297, 110-119) were followed [200 μL total volume, 1 mg/mL rat liver S9 fraction (diluting with phosphate buffer (0.1 M, pH 7.4)), at a final compound concentration of 200 μM, 2.5% DMSO overall, 37° C., 6 h, n=3]. The assay protocol followed is as that described above for the rat serum assay, with an adjusted end-point of 6 h.

[5] = tested on: Sprague Dawley rats; experiment: In vivo lethality, intravenous injection via the tail; set-up: species or system rat (Sprague Dawley); conditions: rat
In short: (§1)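 Sprague Dawley rats (150-200 g) received compound dissolved in 0.2 M HCl (5% DMSO overall) at the desired dose, by oral gavage or tail-vein i.v. injection. Animals were watched for early toxicity signs every minute (i.v.) or every 15 min (oral).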

[6] = tested on: Sprague Dawley rats; experiment: In vivo lethality, oral gavage; set-up: species or system rat (Sprague Dawley); conditions: rat; for Time to Death (min) / Onset of Symptoms: mean time; for Onset of Symptoms: visual signs of distress consistent with NRB-like symptoms; for In vivo lethality (oral): n = 2
In short: as §1

[7] = tested on: Sprague Dawley rats; experiment: Palatability (no-choice) trial, peanut butter bait; assay type: in vivo, rat (Sprague Dawley); conditions: 1% w/w toxicant in peanut butter bait, n = 6, 3 male and 3 female rats
Text: In the palatability trials, Sprague Dawley rats (ca. 250 g) were presented with 1% w/w compound (n=6) or 0.5% w/w compound (n=5) in a peanut butter bait, following 3 days ‘pre-baiting’ with a peanut butter formulation free of toxicant.

[8] = tested on: Sprague Dawley rats; experiment: Palatability (choice) trial, peanut butter bait; assay type: in vivo, rat (Sprague Dawley); conditions: choice of EPA diet (20 g) and bait with 1% w/w toxicant (20 g), 2 days, n = 2; Table 15
[9] = tested on: Sprague Dawley rats; experiment: Palatability (no-choice) trial, peanut butter bait; assay type: in vivo, rat (Sprague Dawley); conditions: 2% w/w toxicant in peanut butter bait, n = 6, Table 12
[10] = Table 5, compounds of formula (III)

Compound | Vasoconstriction: maximum contractile effect as a % of 90 mM KCl contraction ([1]; Table 1, compound at 50 μM) [%] | Vasoconstriction: maximum contractile effect as a % of 90 mM KCl contraction ([1]; Table 4, pre-cleavage, n = 3) [%] | % NRB released, Hydrolytic Stability (simulated gastric fluid) [2] | % NRB released, Rat Serum [3] [%] | % NRB released, Rat Liver S9 [4] [%] | In vivo lethality (i.v.) ([5]; 20 mg/Kg, n = 2) | Time to Death (min) ([6]; 20 mg/Kg) | Onset of Symptoms ([6]; 20 mg/Kg) [min] | In vivo lethality (oral) ([6]; 20 mg/Kg) | In vivo lethality (oral) ([6]; 40 mg/Kg) | Vasoconstriction: maximum contractile effect as a % of 90 mM KCl contraction [1, 10] [%] | Vasoconstriction: maximum contractile effect as a % of 90 mM KCl contraction ([1]; n = 3, pre-cleavage, Table 6) [%] | % NRB released, Hydrolytic Stability [2] [%] | In vivo lethality (i.v.) ([5]; 20 mg/Kg, n = 2, Table 6) | No of deaths ([7]; Table 11) | In vivo lethality (i.v.) ([5]; 10 mg/Kg, n = 2, Table 6) | Vasoconstriction: maximum contractile effect as a % of 90 mM KCl contraction ([1]; Table 2, compound at 50 μM) [%] | No of deaths ([7]; Table 12) | No of deaths [8] | No of deaths [9]
5-(α-Hydroxy-α-2-pyridylbenzyl)-N-2′-phenylpropioyloxyethyl-7-(α-2-pyridylbenzylidene)-5-norbornene-2,3-dicarboximide [Compound 123] | 0 | 0 | 0^c % | 84.5 ± 2.0 | 55.6 ± 4.1 | yes^f | 35^d min | 15 | yes^h,i | yes^h,i |  |  |  |  |  |  |  |  |  | 
O=C(OCN1C(=O)C2C3C=C(C(O)(c4ccccc4)c4ccccn4)C(C3=C(c3ccccc3)c3ccccn3)C2C1=O)c1ccc2ccccc2c1 (stereo not drawn) [Compound 20, 5-(α-Hydroxy-α-2-pyridylbenzyl)-2′-naphthoyloxymethyl-7-(α-2-pyridylbenzylidene)-5-norbornene-2,3-dicarboximide] | 0 | 0 | 0^c % | 31.3 ± 2.7 | 20.2 ± 0.8 | yes^f |  |  |  | no^h |  |  |  |  |  |  |  |  |  | 
O=C(CCCCCCCCC(=O)OCN1C(=O)C2C3C=C(C(O)(c4ccccc4)c4ccccn4)C(C3=C(c3ccccc3)c3ccccn3)C2C1=O)OCN1C(=O)C2C3C=C(C(O)(c4ccccc4)c4ccccn4)C(C3=C(c3ccccc3)c3ccccn3)C2C1=O (stereo not drawn) [Compound 24, 5-(α-Hydroxy-α-2-pyridylbenzyl)-7-(α-2-pyridylbenzylidene)-N-sebacoyloxymethyl-5-norbornene-2,3-dicarboximide dimer] |  |  |  | 8.6 ± 0.5 | 6.2 ± 0.2 |  |  |  |  |  | 0 | 0 | 0 | no^e |  |  |  |  |  | 
CCCCCCCC(=O)OCCN1C(=O)C2C3C=C(C(O)(c4ccccc4)c4ccccn4)C(C3=C(c3ccccc3)c3ccccn3)C2C1=O (stereo not drawn) [Compound 111, 5-(α-Hydroxy-α-2-pyridylbenzyl)-N-2′-octanoyloxyethyl-7-(α-2-pyridylbenzylidene)-5-norbornene-2,3-dicarboximide] | 0 | 0 | 20^c % | 87.9 ± 0.7 | 48.5 ± 8.5 |  | >120^e min | 15 |  |  |  |  |  |  | 6/6 |  |  |  |  | 
O=C(OCCN1C(=O)C2C3C=C(C(O)(c4ccccc4)c4ccccn4)C(C3=C(c3ccccc3)c3ccccn3)C2C1=O)C(c1ccccc1)c1ccccc1 (stereo not drawn) [Compound 118] | 0 | 0 | 0^c % | <5 | 9.0 ± 0.7 | yes^f |  |  |  | no^h |  |  |  |  |  |  |  |  |  | 
O=C(OCCN1C(=O)C2C3C=C(C(O)(c4ccccc4)c4ccccn4)C(C3=C(c3ccccc3)c3ccccn3)C2C1=O)c1ccc2ccccc2c1 (stereo not drawn) [Compound 122, 5-(α-Hydroxy-α-2-pyridylbenzyl)-N-[2′-(2″-naphthoyloxy)ethyl]-7-(α-2-pyridylbenzylidene)-5-norbornene-2,3-dicarboximide] | 0 | 0 | 0^c % | 14.4 ± 3.0 | 14.1 ± 0.5 | yes^f |  |  | yes^h,i | yes^h,i |  |  |  |  |  |  |  |  |  | 
O=C(C=Cc1ccccc1)OCCCN1C(=O)C2C3C=C(C(O)(c4ccccc4)c4ccccn4)C(C3=C(c3ccccc3)c3ccccn3)C2C1=O (stereo not drawn) [Compound 136, N-3′-Cinnamoyloxypropyl-5-(α-hydroxy-α-2-pyridylbenzyl)-7-(α-2-pyridylbenzylidene)-5-norbornene-2,3-dicarboximide] | 0 | 0 | 0^c % | 76.5 ± 5.7 | 18.2 ± 2.7 | yes^f | not lethal | 20 |  | yes^h |  |  |  |  |  |  |  |  |  | 
O=C(CCCCCCCCC(=O)OCCN1C(=O)C2C3C=C(C(O)(c4ccccc4)c4ccccn4)C(C3=C(c3ccccc3)c3ccccn3)C2C1=O)OCCN1C(=O)C2C3C=C(C(O)(c4ccccc4)c4ccccn4)C(C3=C(c3ccccc3)c3ccccn3)C2C1=O (stereo not drawn) [Compound 141, 5-(α-Hydroxy-α-2-pyridylbenzyl)-7-(α-2-pyridylbenzylidene)-N-2′-sebacoyloxyethyl-5-norbornene-2,3-dicarboximide dimer] |  |  |  | <5 | <5 |  |  |  |  |  | 0 | 0 | 0 |  |  | no^f |  |  |  | 
O=C(CCC(=O)OCCN1C(=O)C2C3C=C(C(O)(c4ccccc4)c4ccccn4)C(C3=C(c3ccccc3)c3ccccn3)C2C1=O)OCCOC(=O)CCC(=O)OCCN1C(=O)C2C3C=C(C(O)(c4ccccc4)c4ccccn4)C(C3=C(c3ccccc3)c3ccccn3)C2C1=O (stereo not drawn) [Compound 144, N-[2′-Ethylenebis(hydrogensuccinoyloxy)ethyl]-5-(α-hydroxy-α-2-pyridylbenzyl)-7-(α-2-pyridylbenzylidene)-5-norbornene-2,3-dicarboximide dimer] |  |  |  | 14.5 ± 0.8 | <5 |  |  |  |  |  | 0 | 0 | 0 |  |  | no^f |  |  |  | 
CCCCCCCCCCCC(=O)NCCN1C(=O)C2C3C=C(C(O)(c4ccccc4)c4ccccn4)C(C3=C(c3ccccc3)c3ccccn3)C2C1=O (stereo not drawn) [Compound 339, N-2′-Dodecanamidoethyl-5-(α-hydroxy-α-2-pyridylbenzyl)-7-(α-2-pyridylbenzylidene)-5-norbornene-2,3-dicarboximide] |  | 0 |  |  |  |  | 300^e min | 200 |  | yes^h |  |  |  |  |  |  | 0 | 3/6 | 3/12 | 5/6

From patent US9198420B2, “Rodenticidal norbormide analogues” (priority 2012, dated 2015)
